In test [1] the target is T1, MOF-KAT8 (Homo sapiens, UniProt Q9H7Z6).
T1 sequence (Q9H7Z6 177-447): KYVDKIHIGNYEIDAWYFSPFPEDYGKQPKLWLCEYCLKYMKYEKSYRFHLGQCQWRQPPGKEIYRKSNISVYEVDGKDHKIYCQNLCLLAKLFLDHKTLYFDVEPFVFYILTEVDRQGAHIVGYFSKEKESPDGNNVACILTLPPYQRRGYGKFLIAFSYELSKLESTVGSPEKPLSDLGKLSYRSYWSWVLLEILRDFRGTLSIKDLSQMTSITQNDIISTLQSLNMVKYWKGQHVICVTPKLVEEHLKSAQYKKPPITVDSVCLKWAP
Put plainly: Acetyltransferase biochemical assay (AlphaScreen), KAT8. The following applies: Table 4 (MOF-KAT8); 0.4 μM Acetyl coenzyme A, histone H4, 20 nM enzyme. On the technique in general: Alpha assays give light when donor and acceptor beads are brought close together.

A further test deals with T2, MOZ-KAT6A (Homo sapiens, UniProt Q92794, A567V).
T2 construct: encoding amino acid residues 507 to 778 (Uniprot Q92794-1) of human KAT6A; made in house; host or cells: E. coli BL21 DE3
T2 sequence (Q92794 507-778 A567V limits assumed): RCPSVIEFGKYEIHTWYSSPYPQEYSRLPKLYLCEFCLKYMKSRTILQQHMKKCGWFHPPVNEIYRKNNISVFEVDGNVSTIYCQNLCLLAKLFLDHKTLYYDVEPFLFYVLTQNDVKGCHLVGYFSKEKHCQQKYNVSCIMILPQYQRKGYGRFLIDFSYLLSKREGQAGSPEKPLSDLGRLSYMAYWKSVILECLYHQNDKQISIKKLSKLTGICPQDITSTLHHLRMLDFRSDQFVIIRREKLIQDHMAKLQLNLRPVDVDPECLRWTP
Description: Revised Acetyltransferase Biochemical Assay, KAT6A. The following applies: Table 8 (MOZ-KAT6A), 1 μM Acetyl coenzyme A.

Test [2] deals with T3, HBO-KAT7 (Homo sapiens, UniProt O95251).
T3 construct: encoding amino acid residues 325 to 611 (Uniprot 095251-1) of human KAT7; made in house; host or cells: E. coli BL21 DE3 RIL
T3 sequence (O95251 with tags, fused parts or gaps): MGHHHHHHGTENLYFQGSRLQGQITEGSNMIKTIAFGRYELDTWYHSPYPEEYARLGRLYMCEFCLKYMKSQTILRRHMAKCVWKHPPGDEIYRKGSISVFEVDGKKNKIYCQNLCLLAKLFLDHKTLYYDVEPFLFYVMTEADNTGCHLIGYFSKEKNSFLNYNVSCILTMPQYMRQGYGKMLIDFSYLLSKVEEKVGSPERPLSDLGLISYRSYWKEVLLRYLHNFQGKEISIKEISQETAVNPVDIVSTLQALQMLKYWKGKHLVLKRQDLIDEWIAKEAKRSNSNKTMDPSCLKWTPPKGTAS
Description: Revised Acetyltransferase Biochemical Assay, KAT7. The note with it: Table 9 (HBO-KAT7), 1 μM Acetyl coenzyme A.

Another test concerns the target T4, TIP60-KAT5 (Homo sapiens, UniProt Q92993).
T4 construct: encoding amino acid residues 2 to 461 (Uniprot Q92993-2) of human KAT5 isoform; made in house; host or cells: E. coli BL21 DE3
Put plainly: Revised Acetyltransferase Biochemical Assay, KAT5. The following applies: 10 nM KAT5, 1 μM AcCoA, 100 nM histone H4, 90 min.

For test [3], the system named is histone H3 Lysine 14 acetylation (HBO1 mediated) in U2OS cells. Description: Histone H3 Lysine 14 Acetylation Biomarker Assay (384-well, U2OS). The test is classed as cell-based. The following applies: Homo sapiens, serum free medium, 24 hours incubation. As to the method:
Compounds may be tested for their ability to inhibit acetylation of the histone H3 Lysine 14 (which is HBO1 mediated) marker in the following assay:
The cell line U2OS was seeded at a density of 3,000 cells per well in 384-well optical quality tissue culture plates in RPMI medium supplemented with 10% foetal bovine serum and 10 mM Hepes. The cells were allowed to adhere for 24 hours under standard culture conditions (37 degree Celsius, 5% CO2). At the end of this period the cells were washed with serum free medium. Compound dilutions prepared in DMSO were added to the serum free medium, with negative control wells reserved for treatment with DMSO only and 100% inhibition positive controls receiving a potent inhibitor compound (e.g. (Z)-4-fluoro-N-((3-hydroxyphenyl)sulfonyl)-5-methyl-[1,1′-biphenyl]-3-carbohydrazonic acid) at 10 μM concentration. After incubation for 24 hours, the cells were fixed with 4% formaldehyde in PBS for 15 minutes at room temperature, washed with phosphate buffer saline and blocked with blocking buffer containing 0.2% TritonX100 and 2% BSA. Anti-H3K14ac specific antibody (Cell Signalling Technologies) in blocking buffer was added and incubated overnight at 4 degree Celsius. After washing, a secondary antibody labelled with AlexaFluor 488 dye (ThermoFisher) and Hoechst 33342 (1 μg/mL, Life Technologies) were added for 2 hours incubation at room temperature. Plates were washed and read on a
PerkinElmer Opera HCS high content imaging platform. Using a Columbus image analysis pipeline, individual nuclei were located by Hoechst 33342 stain and the acetylation level was calculated from the AlexaFluor 488-related intensity in the same area. The resulting mean intensity per cell was converted to percent inhibition relative to controls on the same plate and the data fitted against a four-parameter logistic model to determine the 50% inhibitory concentration (IC50).

For test [4], the system named is histone H2A.Z Lysine 7 acetylation (TIP60 mediated) in U2OS cells. Put plainly: H2A.Z Lysine 7 Acetylation Biomarker Assay (384-well, U2OS). The test is classed as cell-based. The following applies: Homo sapiens, serum free medium, 24 hours incubation. As to the method: Compounds may be tested for their ability to inhibit the histone H2A.Z Lysine 7 acetylation marker (which is TIP60 mediated) in the following assay:
The cell line U2OS was seeded at a density of 3,000 cells per well in 384-well optical quality tissue culture plates in RPMI medium supplemented with 10% foetal bovine serum and 10 mM Hepes. The cells were allowed to adhere for 24 hours under standard culture conditions (37 degree Celsius, 5% CO2). At the end of this period the cells were washed with serum free medium. […] After incubation for 24 hours, the cells were fixed with 4% formaldehyde in PBS for 15 minutes at room temperature, washed with phosphate buffer saline and blocked with blocking buffer containing 0.2% TritonX100 and 2% BSA. Anti-H2A.ZK7ac specific antibody (Abcam) in blocking buffer was added and incubated overnight at 4 degree Celsius. After washing, a secondary antibody labelled with AlexaFluor 488 dye (ThermoFisher) and Hoechst 33342 (1 μg/mL, Life Technologies) were added for 2 hours incubation at room temperature. Plates were washed and read on a PerkinElmer Opera HCS high content imaging platform. Using a Columbus image analysis pipeline, individual nuclei were located by Hoechst 33342 stain and the acetylation level was calculated from the AlexaFluor 488-related intensity in the same area. The resulting mean intensity per cell was converted to percent inhibition relative to controls on the same plate and the data fitted against a four-parameter logistic model to determine the 50% inhibitory concentration (IC50).

In test [5] the target is T1, MOF-KAT8. Description: Revised Acetyltransferase Biochemical Assay, KAT8.
Test [6] deals with T3, HBO-KAT7. Description: Acetyltransferase biochemical assay (AlphaScreen), KAT7. The note with it: Table 3 (HBO-KAT7); 0.4 μM Acetyl coenzyme A, histone H3.1, 40 nM enzyme.

SMILES strings stand for the structures.

As a reminder, the IC50 is the midpoint of a concentration-inhibition curve. The low end stands for inhibition by little substance, the high end for a need for much substance.

T4 sequence (Q92993 2-461 isoform Q92993-2): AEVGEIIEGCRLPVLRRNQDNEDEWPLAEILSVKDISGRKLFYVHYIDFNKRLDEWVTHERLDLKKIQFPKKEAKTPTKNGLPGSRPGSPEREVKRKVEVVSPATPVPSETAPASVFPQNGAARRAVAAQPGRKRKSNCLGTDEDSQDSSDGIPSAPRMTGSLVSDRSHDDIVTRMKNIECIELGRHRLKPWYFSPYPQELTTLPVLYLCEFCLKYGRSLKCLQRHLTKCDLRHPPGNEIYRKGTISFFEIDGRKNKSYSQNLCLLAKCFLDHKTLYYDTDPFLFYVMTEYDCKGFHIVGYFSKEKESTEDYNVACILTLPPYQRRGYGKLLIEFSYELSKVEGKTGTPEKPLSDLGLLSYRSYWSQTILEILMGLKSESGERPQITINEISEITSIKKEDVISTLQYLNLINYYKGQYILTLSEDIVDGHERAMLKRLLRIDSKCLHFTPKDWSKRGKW

For `O=C(NCC(c1cccc(Cl)c1)c1ncco1)C1=Nc2ccc(Cl)cc2S(=O)(=O)N1` (stereo not shown) [Example 162], the half-maximal inhibitory concentration (IC50) at MOF-KAT8 [1] was found to be 4200 nM; on MOZ-KAT6A, 29 nM; against HBO-KAT7 [2], 512 nM; against TIP60-KAT5 it was 1540 nM; in test [3], 6520 nM; in test [4], 10900 nM. In addition, half-maximal inhibition against MOF-KAT8 [5] (IC50) was put at 34500 nM.

As for `O=C(NCC(c1ccc(F)cc1)c1ncco1)C1=Nc2ccc(I)cc2S(=O)(=O)N1` (stereo not shown) [Example 164], the IC50 against MOF-KAT8 [1] worked out at 29600 nM; against MOZ-KAT6A it was 17 nM; against HBO-KAT7 [2] it was 242 nM; against TIP60-KAT5, 781 nM; in test [3], 2080 nM; in test [4] it was 2820 nM. The compound further gave an IC50 against MOF-KAT8 [5] of 34400 nM.

As for `Cc1ccc(C(CNC(=O)C2=Nc3ccc(I)cc3S(=O)(=O)N2)c2ncco2)cc1` (stereo not shown) [Example 169], the half-inhibitory concentration (IC50) at MOF-KAT8 [1] came out at 5140 nM; at MOZ-KAT6A, 23 nM; at HBO-KAT7 [2] it was 386 nM; against TIP60-KAT5, 412 nM; in test [3], 1300 nM; in test [4], 9880 nM. This compound also had an IC50 at MOF-KAT8 [5] of 43700 nM.

Regarding `COCc1nnc(C(CNC(=O)C2=Nc3ccc(I)cc3S(=O)(=O)N2)c2ccccc2)o1` (stereo not shown) [Example 171], the IC50 was 41700 nM against MOF-KAT8 [1]; 24 nM on MOZ-KAT6A; 785 nM at HBO-KAT7 [2]; 1160 nM at TIP60-KAT5; 10400 nM in test [3]; more than 40000 nM in test [4]. The compound further gave an IC50 on MOF-KAT8 [5] of more than 125000 nM.

Regarding `COc1cccc(C(CNC(=O)C2=Nc3ccc(I)cc3S(=O)(=O)N2)c2ncco2)c1` (stereo not shown) [Example 187, 7-iodo-N-(2-(3-methoxyphenyl)-2-(oxazol-2-yl)ethyl)-2H-benzo[e][1,2,4]thiadiazine-3-carboxamide 1,1-dioxide], the IC50 is 22800 nM on MOF-KAT8 [1]; 15 nM on MOZ-KAT6A; 115 nM on HBO-KAT7 [2]; 242 nM against TIP60-KAT5; 491 nM in test [3]; 5460 nM in test [4]. This compound also returned an IC50 on MOF-KAT8 [5] of 14100 nM.

On to `Nc1nnc(C(CNC(=O)C2=Nc3ccc(I)cc3S(=O)(=O)N2)c2ccccc2)o1` (stereo not shown) [Example 189], for which the IC50 against MOF-KAT8 [1] is 7960 nM; at MOZ-KAT6A it was 75 nM; against HBO-KAT7 [2], 214 nM; on TIP60-KAT5 it was 2850 nM; in test [3] it was more than 20000 nM; in test [4], more than 40000 nM. Also, on MOF-KAT8 [5], the IC50 is 28700 nM.

As to `O=C(NCCc1ccccc1-n1ncc(CO)n1)C1=Nc2ccc(I)cc2S(=O)(=O)N1` [Example 190, N-(2-(4-(hydroxymethyl)-2H-1,2,3-triazol-2-yl)phenethyl)-7-iodo-2H-benzo[e][1,2,4]thiadiazine-3-carboxamide 1,1-dioxide], the IC50 against MOF-KAT8 [1] amounted to 48900 nM; on MOZ-KAT6A it was 8 nM; against HBO-KAT7 [2], 414 nM; at TIP60-KAT5, 303 nM; in test [3], 4950 nM; in test [4], 31100 nM. Half-maximal inhibition against MOF-KAT8 [5] (IC50) was put at 68400 nM.

In the case of `O=C(NCC(c1cccc(O)c1)c1ncco1)C1=Nc2ccc(Br)cc2S(=O)(=O)N1` (stereo not shown) [Example 214, 7-Bromo-N-(2-(3-hydroxyphenyl)-2-(oxazol-2-yl)ethyl)-2H-benzo[e][1,2,4]thiadiazine-3-carboxamide 1,1-dioxide], the IC50 at MOF-KAT8 [1] worked out at 7060 nM; against MOZ-KAT6A, 9 nM; on HBO-KAT7 [2], 50 nM; on TIP60-KAT5, 70 nM; in test [3] it was 3600 nM; in test [4] it was 8780 nM. This compound returned an IC50 against MOF-KAT8 [5] of 20100 nM.

`O=C(NCC(c1cccc(OCC2CC2)c1)c1ncco1)C1=Nc2ccc(I)cc2S(=O)(=O)N1` (stereo not shown) [Example 217, N-(2-(3-(Cyclopropylmethoxy)phenyl)-2-(oxazol-2-yl)ethyl)-7-iodo-2H-benzo[e][1,2,4]thiadiazine-3-carboxamide 1,1-dioxide]: the half-inhibitory concentration (IC50) on HBO-KAT7 [6] was 1740 nM; against MOF-KAT8 [1] it was 22500 nM; at MOZ-KAT6A it was 265 nM; at HBO-KAT7 [2], 1190 nM; against TIP60-KAT5 it was 1460 nM; in test [3] it was 1290 nM. In test [4], this compound registered a concentration for half-maximal inhibition (IC50) of 32100 nM.

Take `O=C(NCC(CO)c1ccccc1)C1=Nc2ccc(Cl)cc2S(=O)(=O)N1` (stereo not shown) [Example 225, 7-Chloro-N-(3-hydroxy-2-phenylpropyl)-2H-benzo[e][1,2,4]thiadiazine-3-carboxamide 1,1-dioxide]: the IC50 at MOZ-KAT6A is 447 nM; at HBO-KAT7 [2] it was 1460 nM; against TIP60-KAT5, 5120 nM; in test [3] it was more than 40000 nM; in test [4], more than 40000 nM; on MOF-KAT8 [5], more than 125000 nM.

Consider `COCC(CNC(=O)C1=Nc2ccc(Cl)cc2S(=O)(=O)N1)c1ccccc1` (stereo not shown) [Example 226, 7-Chloro-N-(3-methoxy-2-phenylpropyl)-2H-benzo[e][1,2,4]thiadiazine-3-carboxamide 1,1-dioxide], for which the IC50 at MOZ-KAT6A is 75 nM; on HBO-KAT7 [2], 1930 nM; on TIP60-KAT5, 3730 nM; in test [3], 24400 nM; in test [4] it was more than 40000 nM; on MOF-KAT8 [5], more than 125000 nM.

`O=C(NCC(c1ncco1)c1ccccc1O)C1=Nc2ccc(I)cc2S(=O)(=O)N1` (stereo not shown) [Example 228, N-(2-(2-Hydroxyphenyl)-2-(oxazol-2-yl)ethyl)-7-iodo-2H-benzo[e][1,2,4]thiadiazine-3-carboxamide 1,1-dioxide]: the IC50 against MOF-KAT8 [1] stood at 6520 nM; against MOZ-KAT6A it was 7 nM; at HBO-KAT7 [2], 92 nM; at TIP60-KAT5 it was 111 nM; in test [3] it was 3250 nM; in test [4], 5710 nM. On MOF-KAT8 [5], this compound registered an IC50 of 9660 nM.

Take `COCc1cnn(-c2ccccc2CCNC(=O)C2=Nc3ccc(I)cc3S(=O)(=O)N2)n1` [Example 239, 7-iodo-N-(2-(4-(methoxymethyl)-2H-1,2,3-triazol-2-yl)phenethyl)-2H-benzo[e][1,2,4]thiadiazine-3-carboxamide 1,1-dioxide]: the IC50 is more than 125000 nM against MOF-KAT8 [1]; 17 nM on MOZ-KAT6A; 686 nM on HBO-KAT7 [2]; 597 nM on TIP60-KAT5; 19200 nM in test [3]; 75600 nM against MOF-KAT8 [5].

For `O=C(NCCc1ccccc1-n1cccn1)C1=Nc2ccc(I)cc2S(=O)(=O)N1` [Example 240, N-(2-(1H-pyrazol-1-yl)phenethyl)-7-iodo-2H-benzo[e][1,2,4]thiadiazine-3-carboxamide 1,1-dioxide], the 50% inhibitory concentration (IC50) is 21 nM on MOZ-KAT6A; 134 nM against HBO-KAT7 [2]; 309 nM on TIP60-KAT5; 3320 nM in test [3]; 11200 nM in test [4]; 62600 nM against MOF-KAT8 [5].

(Values after patent US20210380548A1, “Fused [1,2,4]Thiadiazine Derivatives Which Act as KAT Inhibitors of the MYST Family” (CTxT Pty Limited, priority 2017, published 2021).)
